Data reported in publication PMC9596752, “Investigation of anti-diabetic potential and molecular simulation studies of dihydropyrimidinone derivatives” (Frontiers in Endocrinology, 2022).
Converted amounts (≈) assume the structure as drawn.

Biological target: α-glucosidase
Test: in vitro α-glucosidase inhibition assay, absorbance at […] nm
Format: biochemical, Saccharomyces cerevisiae

IC50: 1.02 mg/L (≈ 3.04 µM)
SMILES: O=C1NC2=C(C(=O)N(Cc3ccccc3)C2)C(c2ccc(O)cc2)N1 (stereo not shown) [A, 6-benzyl-4-(4-hydroxyphenyl)-3,4,6,7-tetrahydro-1H-pyrrolo[3,4-d]pyrimidine-2,5-dione]
